Here are results for one compound from US9446024B2, “Formulations for the treatment of vaginal disorders” (Mission Pharmacal Company, priority 2013, dated 2016).

The structures appear in SMILES notation.

Common to all, as to experiment: MIC determination, agar dilution
What all share (type): cell-based

The test system of one experiment is Lactobacillus gasseri. Conditions: each identified strain.
A further experiment concerns Lactobacillus vaginalis. Conditions: Limosilactobacillus vaginalis; each identified strain.
A further experiment relates to Lactobacillus crispatus. Conditions: non-reference strain.
Another experiment relates to Lactobacillus jensenii. To be noted: each identified strain.
The test system of the next experiment is Mobiluncus curtisii. To be noted: each identified strain.
For another experiment, the system named is Lactobacillus iners. Conditions: each identified strain.

For orientation: MIC means the lowest concentration found to suppress growth. In the case of `CCS(=O)(=O)CCn1c([N+](=O)[O-])cnc1C` [tinidazole], the MIC in the experiment on Lactobacillus gasseri, against Lactobacillus vaginalis, against Lactobacillus jensenii, against Mobiluncus curtisii and with Lactobacillus iners was over 150 µg/mL in each case. Also, the “growth inhibition at the highest concentration tested” value in the experiment on Lactobacillus crispatus is “unaffected”.
